Assays:
[1] = test system: MCF7 human mammary adenocarcinoma cells; test: MCF7 breast cancer xenograft model (Study 1 and Study 2); type: in vivo; conditions: Compound B 30 mg/kg qd, single agent
Method: On day 0, cells were harvested by trypsinization, and 5×10^6 cells (passage 10 and 95.4% viability for Study 1, passage 9 and 90% viability for Study 2) in 100 μL of a solution made of 50% cold Hanks balanced salt solution with 50% growth factor reduced matrigel (R&D Systems for Study 1 and Becton Dickinson for Study 2) implanted subcutaneously into the hindflank of female nude mice.
Compound A was tested both as a single agent and in combination with Compound B, an EGFR inhibitor, in a breast tumor model. The MCF7 human breast carcinoma cell line harbors a heterozygous, activating mutation in PI3K (PI3KCA/E545K) and expresses wild-type EGFR.
Compound B was administered orally once-daily (qd) at 30 mg/kg, and Compound A was administered once-daily at 30 mg/kg or once every other day (q2d) at 100 mg/kg. Combination therapies consisted of Compound B together with Compound A at 30 mg/kg qd or 100 mg/kg q2d.

[2] = test system: A549 human lung carcinoma cells; test: A549 non-small cell lung cancer xenograft model; type: in vivo
Method: A transponder was implanted in each mouse for identification, and animals were monitored daily for clinical symptoms and survival. Body weights were recorded daily.
Compound A was tested both as a single agent and in combination with Compound B. The A549 human non-small cell lung carcinoma cell line harbors a homozygous stop mutation in the gene encoding LKB1, and an activating G12S mutation in K-Ras, promoting activation of both PI3K and mTOR. A549 cells also express wild-type EGFR.
As a single agent, Compound B, an inhibitor of EGFR, was orally administered once-daily at 30 mg/kg and Compound A was orally administered either at 30 mg/kg qd or 100 mg/kg q2d. Combination therapies consisted of Compound B with Compound A at 30 mg/kg or 100 mg/kg. Administration of each agent in the combination groups was separated by 6 h.

[3] = test system: Calu-6 human lung anaplastic carcinoma cells; test: Calu-6 non-small cell lung cancer xenograft model; type: in vivo; conditions: carboplatin 50 mg/kg i.v. q4d, single agent; FIG. 3
Method: On day 0, cells were harvested by trypsinization, and 5×10^6 cells (passage #8, 96% viability) in 0.1 mL ice-cold Hank's balanced salt solution were implanted intradermally in the hind-flank of 5-8 week old female athymic nude mice. A transponder was implanted in each mouse for identification, and animals were monitored daily for clinical symptoms and survival. Body weights were recorded daily.
Calu-6 is a human NSCLC cell line that harbors a heterozygous activating mutation in K-Ras (Q61K).

MDA-MB-468 cells = conditions: in vitro treatment of MDA-MB-468 cells
Text: (§1) MDA-MB-468 is a human breast carcinoma cell line that has an increase in the copy number of the EGFR gene and a homozygous deletion of PTEN.

[4] = test system: MDA-MB-468 human breast adenocarcinoma cells
Text: as §1

[5] = test system: PC-3 human prostate adenocarcinoma cells; type: in vivo; conditions: taxol 7.5 mg/kg i.v. twice weekly, single agent; FIG. 1
Method: Female and male athymic nude mice (NCr) 5-8 weeks of age and weighing approximately 20-25 g were used in the following model. Prior to initiation of a study, the animals were allowed to acclimate for a minimum of 48 h. During these studies, animals were provided food and water ad libitum and housed in a room conditioned at 70-75° F. and 60% relative humidity. A12 h light and 12 h dark cycle was maintained with automatic timers. All animals were examined daily for compound-induced or tumor-related deaths.
PC-3 human prostate adenocarcinoma cells were cultured in vitro in DMEM (Mediatech) supplemented with 20% Fetal Bovine Serum (Hyclone), Penicillin-Streptomycin and non-essential amino acids at 37° C. in a humidified 5% CO2 atmosphere. […] A transponder was implanted in each mouse for identification, and animals were monitored daily for clinical symptoms and survival. Body weights were recorded daily.
For subcutaneous or intradermal tumors, the mean tumor weight of each animal in the respective control and treatment groups was determined twice weekly during the study. […] Percent inhibition of tumor growth (TGI) is determined with the following formula: […]
[formula] Tumor size is calculated individually for each tumor to obtain a mean±SEM value for each experimental group. Statistical significance is determined using the 2-tailed Student's t-test (significance defined as P<0.05).

[6] = Compound B 30 mg/kg qd, single agent

With `COc1cc2c(Nc3ccc(Cl)c(Cl)c3F)ncnc2cc1OC[C@@H]1C[C@@H]2CN(C)C[C@@H]2C1` [Compound B, N-(3,4-dichloro-2-fluorophenyl)-7-({[(3aR,5r,6aS)-2-methyloctahydrocyclopenta-[c]pyrrol-5-yl]methyl}oxy)-6-(methyloxy)quinazolin-4-amine] the tolerability [1] was “generally well tolerated”, the body weight loss [2, 6] was 1.5-6.9% and the dose omission [2, 6] was “no dose omission”. For the same compound, the tolerability [2, 6] was “generally well tolerated”, the tumor growth inhibition ([2]; Compound B oral 30 mg/kg once-daily for 18 days, single agent) was 80% and the “tolerability (summary)” value ([2]; single agent administration) was “well tolerated with minimal dose skipping”.
For `N.N.O=C([O-])C1(C(=O)[O-])CCC1.[Pt+2]` [carboplatin], the tumor growth inhibition [3] was “Significant tumor growth inhibition”.
In the case of `C#Cc1cccc(Nc2ncnc3cc(OCCOC)c(OCCOC)cc23)c1` [erlotinib], the PI3K pathway (MDA-MB-468 cells) is reported as “fails to downregulate the PI3K pathway”, the tumor growth inhibition ([4]; erlotinib oral 100 mg/kg qd, single agent, FIG. 5) is reported as “significant but incomplete tumor growth inhibition” and the “rate of body weight gain” value ([4]; mouse, in vivo) is reported as “apparent decrease in their rate of body weight gain”.
For `CC(=O)O[C@H]1C(=O)[C@@]2(C)[C@H]([C@H](OC(=O)c3ccccc3)[C@]3(O)C[C@H](OC(=O)[C@H](O)[C@@H](NC(=O)c4ccccc4)c4ccccc4)C(C)=C1C3(C)C)[C@]1(OC(C)=O)CO[C@@H]1C[C@@H]2O` [taxol, Paclitaxel], the tumor growth inhibition [5] was “Comparable tumor growth inhibition”.
